This note sets out measurements from publication PMC12764776, “Structural basis of specific lysine transport by Pseudomonas aeruginosa permease LysP” (Nature Communications, 2025).

The Kd is the constant that tells how readily two partners part at equilibrium. Read a low Kd as higher affinity.

For data set [1], the target named is T1, lysine-specific permease (LysP) (Pseudomonas aeruginosa, UniProt Q9HVG3). The data set is described as follows: microscale thermophoresis. Further details: purified GFP-free LysP in LMNG. The data set is classed as binding. On the technique in general: MST reads how a fluorescent partner responds to local heating, with and without ligand.
Data set [2] addresses T1, lysine-specific permease (LysP). The data set is described as follows: microscale thermophoresis; inhibition of [3H]L-lysine transport in LysP proteoliposomes. Further details: purified GFP-free LysP in LMNG. The data set is classed as binding.
Data set [3] shares this target. The data set is described as follows: cryo-EM structure ([…] Å) and microscale thermophoresis; [3H]L-lysine transport in proteoliposomes (cold L-lysine IC50 […]). The data set is classed as binding. Further details: purified GFP-free LysP in LMNG (MST); LysP-Nb5755 complex (cryo-EM); with nanobody Nb5755 (cryo-EM structure only).
For data set [4], the target named is T2, LysP-GFP fusion (P. aeruginosa LysP with GFP-His8) (P. aeruginosa strain PAO1, UniProt Q9HVG3).
T2 construct: lysine-specific permease LysP, P. aeruginosa strain PAO1, UniProt Q9HVG3; the same construct as m1 in pWaldo-GFPd, with the GFP-His8 fusion not cut off; The GFP fluorescence is the read-out of the GFP-TS assay; source: E. coli (DE3) C43, in membranes solubilised with 1% DDM, not purified
The data set is described as follows: GFP thermal shift (GFP-TS) assay; membranes with LysP-GFP solubilised in 150 mM NaCl, 20 mM Tris-HCl pH 7.5, 1% DDM with or without 1 uM Nb5755, 1 h at 4 °C; 1% beta-OG added; heated 10 min at 4-100 °C; GFP fluorescence of the supernatant. Conditions: one partner purified.

As for `NCCCC[C@@H](N)C(=O)O` [D-lysine], in data set [1], the Kd came out at 151 µM. Molecule `NCCSC[C@H](N)C(=O)O` [L-4-thialysine, S-(2-aminoethyl)-L-cysteine] displayed a Kd in data set [2] of 31 µM. In turn, `NCCCC[C@H](N)C(=O)O` [L-lysine] came in with a Kd in data set [3] of 14 µM. This counts as double-digit micromolar.

B1: nanobody Nb5755 (VHH)
VHH: QVQLQESGGGLVQGGSLRLSCAASGRTFSIYGMAWVRQASGKEREFVAAMPRGGGTTNYADSVKGRFSISRDNAKNTVDLQMNSLKPEDTAVYYCVADRGFTLRLGIQHDYWGQGTQVTVSS
notes: raised in a llama immunised with LysP and selected by phage display; Library cloned into the phage display vector pMESy4, which bears the C-terminal His6 and EPEA tags; also called Nanobody 5755; CA5755; source: E. coli BL21 (DE3), periplasm, purified (Ni-NTA, SEC)
For B1, the “increase in melting temperature” value in data set [4] amounted to 20 °C.
